Measured values as given in US20130011347A1, “Personal Care Compositions With Improved Solubility of a Solid Cosmetic Active” (priority 2011, published 2013).

Experiments:
[1] = Solvency of solvents for (S)-Equol (visual solubility after storage); details: solute (S)-Equol, 6% test solution, approximately 1:16 solute to solvent ratio, soluble = no visible crystals
Protocol: (§1) In the testing provided below, “soluble” (or “solubilize”), in relation to the solubility of a solid solute being tested, means that no visible crystals may be seen after a prescribed storage period at a storage condition. The storage period can vary. Suitable storage periods include about 24 hours, about 1 week, and about 30 days. Suitable storage conditions include ambient conditions or cold storage at 5° C. (approximately 1 atm). In certain embodiments, solubility may be determined after a 24 hour storage period at ambient conditions. In other embodiments, solubility may be determined after 20 days in cold storage. Other testing parameters may include storage for prolonged time periods (e.g., 30 day, 50 days, 60 days, 90 days) and at variable temperatures (e.g., 5° C., 50° C.).
(§2) The solvency of an isosorbide diester within the scope of the present invention was tested against two conventional, industry standard solvents. […] A test solution was of 6% Equol is prepared with heating to 70° C. Upon reaching 70° C., the examples may be mixed for about 10 minutes. Place mixtures in a covered vial and cool to the storage temperature. Solubility is evaluated for samples stored 24 hours at ambient conditions. Solubility is also evaluated for samples stored for 7 day at 5° C. followed by equilibration to ambient conditions.

[2] = Solvency of solvents for tetrahydrocurcuminoids (THC) (visual solubility after storage); details: solute tetrahydrocurcuminoids (THC), 3% test solution, approximately 1:32 solute to solvent ratio, soluble = no visible crystals
[3] = Solvency of solvents for hexylresorcinol (visual solubility after storage); details: solute hexylresorcinol, 33.5% test solution, approximately 1:2 solute to solvent ratio, soluble = no visible crystals
Protocol: as §1
as §2, with “solution” for “solution was”, “33.5% hexylresorcinol” for “6% Equol”

[4] = then equilibration to ambient conditions

CCCCCCCCCCCC(=O)N(C)CC(=O)OC(C)C [Isopropyl lauroyl sarcosinate, isopropyl lauroyl sarcosinate]
Soluble: Solubility, 24 hour rest at Ambient Conditions ([1]; prepared at 70° C.) | Solubility, 7 day storage at 5° C. [1, 4] | Solubility, 24 hour rest at Ambient Conditions ([2]; prepared at 70° C.) | Solubility, 7 day storage at 5° C. [2, 4] | Solubility, 24 hour rest at Ambient Conditions ([3]; prepared at 70° C.) | Solubility, 7 day storage at 5° C. [3, 4]
